According to PMC9994261 (Cell, 2023):
Converted amounts (≈) assume the structure as drawn. “And” between values parts separate entries of the source, which are not always exact repeats. Equal entries are not always repeated. Where two headings read alike, the source gives them in different places.

Tests used:
[1] = system: Mtb H37Rv SEQ-9 resistant mutants; assay type: cell-based, Mycobacterium tuberculosis
Mtb clinical strains = experiment: microbe, parasite or virus in culture; assay type: cell-based; conditions: Mycobacterium tuberculosis, read-out: MIC against Mtb clinical strain

COc1nc2ccc(Br)cc2cc1[C@@H](c1ccccc1)[C@@](O)(CCN(C)C)c1cccc2ccccc12 [BDQ, Bedaquiline]
Growth inhibition (MIC80) [1]: 0.044 µM and 0.042 µM and 0.036 µM

CC[C@H]1OC(=O)[C@H](C)[C@@H](O[C@H]2C[C@@](C)(OC)[C@@H](O)[C@H](C)O2)[C@H](C)[C@@H](O[C@@H]2O[C@H](C)C[C@H](N(C)C)[C@H]2O)[C@](C)(OC)C[C@@H](C)C(=O)[C@H](C)[C@@H](O)[C@]1(C)O [Clarithromycin]
Growth inhibition @ 30µM ([1]; 30 µM): 55% and 70%

CC(=O)NC[C@H]1CN(c2ccc(N3CCOCC3)c(F)c2)C(=O)O1 [Linezolid]
Growth inhibition (MIC80) [1]: 0.92 µM and 0.95 µM and 1.14 µM and 0.80 µM and 0.79 µM

CON=C1CC(C)OC(OC2C(C)CC(C)(OC(=O)NC(C)(C)CNS(=O)(=O)c3ccccc3)C(=O)C(C)C(OC(=O)CC(C)C)C(C)C(C(C)COC3OC(C)C(O)C(OC)C3OC)OC(=O)C(C)C(OC3CC(C)N(C)CC(C)O3)C2C)C1O (stereo not drawn) [SEQ-9]
MIC (Mtb clinical strains; KMA1354-Modern): 0.9 µM (≈ 1.12 µg/mL) | MIC (Mtb clinical strains; KMA3899-Ancient): 1.4 µM (≈ 1.74 µg/mL) | MIC (Mtb clinical strains; KMA4244-Modern): 1.4 µM (≈ 1.74 µg/mL) | MIC (Mtb clinical strains; KMA4439-Modern): 1.4 µM (≈ 1.74 µg/mL) | MIC (Mtb clinical strains; KMA5282-Modern): 0.6 µM (≈ 0.746 µg/mL) | MIC (Mtb clinical strains; KMA5319-Modern): 0.7 µM (≈ 0.87 µg/mL)
